Laboratory results reported in US6162805A, “Use of an NK-1 receptor antagonist and an SSRI for treating obesity” (Merck Sharp & Dohme Limited, priority 1997, dated 2000).
Like-named read-outs stand apart in the source and are kept apart here.

Columns and labels:
foot tapping in gerbils = test: Gerbil Foot-Tapping; type: in vivo, Mongolian gerbil; conditions: Meriones unguiculatus, iv, i.v.
Excerpt: CNS-penetrant NK-1 receptor antagonists for use in the present invention can be identified by their ability to inhibit foot tapping in gerbils induced by anxiogenic agents (such as pentagastrin) or central infusion of NK-1 receptor agonists such as GR73632, or caused by aversive stimulation such as foot shock or single housing, based on the method of Rupniak & Williams, Eur. J. Pharmacol., 1994, 265, 179. […] Alternatively, test compounds may be administered orally or by subcutaneous or intraperitoneal routes. A skin incision is then made in the midline of the scalp to expose the skull. An anxiogenic agent (e.g. pentagastrin) or a selective NK-1 receptor agonist (e.g. GR73632 ([…] ]-substance P-(7-11)) is infused directly into the cerebral ventricles (e.g. 3 pmol in 5 μl i.c.v., depending on test substance) by vertical insertion of a cuffed 27 gauge needle to a depth of 4.5 mm below bregma. The scalp incision is closed and the animal allowed to recover from anaesthesia in a clear perspex observation box (approximately 25 cm×20 cm×20 cm). The duration and/or intensity of hind foot tapping is then recorded continuously for approximately 5 minutes. Alternatively, the ability of test compounds to inhibit foot tapping evoked by aversive stimulation, such as foot shock or single housing, may be studied using a similar method of quantification.

[1] = system: separation-induced vocalisations in guinea-pig pups; test: Separation-Induced Vocalisation in guinea-pig pups; type: in vivo; conditions: for attenuation of separation-induced vocalisations compared with baseline: 30 minutes previously; for ED50: Cavia porcellus, read-out: guinea-pig vocalisation ID50
Excerpt: Male and female guinea-pigs pups are housed in family groups with their mothers and littermates throughout the study. Experiments are commenced […] when the pups are at least 2 weeks old. Before entering an experiment, the pups may be screened to ensure that a vigorous vocalisation response is reproducibly elicited following maternal separation. The pups are placed individually in an observation cage (approximately 55 cm×39 cm×19 cm) in a room physically isolated from the home cage for approximately 15 minutes and the duration and/or number of vocalisation during this baseline period is recorded. […] On test days each pup receives an oral dose or an s.c. or i.p. injection of test compound or vehicle and is then immediately returned to the home cage with its mother and siblings for at least 30 to 60 minutes (or for up to 4 hours following an oral dose, dependent upon the oral pharmacokinetics of the test compound) before social isolation for 15 minutes as described above. The duration and/or number of vocalisation on drug treatment days may be expressed as a percentage of the pre-treatment baseline value for each animal or compared with values obtained in vehicle-treated animals. The same subjects may be retested once weekly for up to 6 weeks. Between 6 and 8 animals receive each test compound at each dose tested.
(v) Determine activity of compounds in assays sensitive to conventional serotonergic drugs (inhibition of pharmacologically evoked foot tapping in gerbils and/or inhibition of distress vocalisations in guinea-pig pups (Assay 4)).

[2] = system: cisplatin-induced emesis in ferrets; test: Ferret Emesis (cisplatin-induced); type: in vivo; conditions: Mustela putorius, po, read-out: ferret emesis ID90
Procedure: Ten minutes later they are fed with approximately 100 g of tinned cat food. At 60 minutes following oral dosing, cisplatin (10 mg/kg) is given i.v. via a jugular vein catheter inserted under a brief period of halothane anaesthesia. The catheter is then removed, the jugular vein ligated and the skin incision closed. The ferrets recover rapidly from the anaesthetic and are mobile within 10-20 minutes. The animals are observed continuously during recovery from the anaesthetic and for 4 hours following the cisplatin injection, after which time the animals are killed humanely. The numbers of retches and vomits occurring during the 4 hours after cisplatin administration are recorded by trained observers.

[3] = 5 min, read-out: gerbil foot-tapping (5 mins.) ID50
[4] = 24 hrs., read-out: gerbil foot-tapping (24 hrs.) ID50

C[C@@H](O[C@H]1OCCN(Cc2nn[nH]c2CN(C)C)[C@H]1c1ccccc1)c1cc(C(F)(F)F)cc(C(F)(F)F)c1 [Test Compound A, 2-(R)-(1-(R)-(3,5-bis(trifluoromethyl)phenyl)ethoxy)-4-(5-(dimethylamino)methyl-1,2,3-triazol-4-yl)methyl-3-(S)-phenylmorpholine]
ED50 (foot tapping in gerbils; [3]): 0.12 mg/kg
ED50 (foot tapping in gerbils; [4]): 0.17 mg/kg
attenuation of separation-induced vocalisations compared with baseline ([1]; 0.25 mg/kg s.c. alone): approximately 25%
ED50 ([1]; sc): 0.5 mg/kg

C[C@@H](O[C@@H]1OCCN(Cc2nn[nH]c2CN(C)C)[C@@H]1c1ccccc1)c1cc(C(F)(F)F)cc(C(F)(F)F)c1 [Test Compound B, 2-(S)-(1-(R)-(3,5-bis(trifluoromethyl)phenyl)ethoxy)-4-(5-(dimethylamino)methyl-1,2,3-triazol-4-yl)methyl-3-(R)-phenylmorpholine, reference compound]
attenuation of separation-induced vocalisations, administered alone ([1]; 0.25 mg/kg s.c. alone (FIG. 1)): failure of the less active enantiomer, Test Compound B (0.25 mg/kg s.c.) to attenuate separation-induced vocalisations when administered alone

C[C@@H](O[C@H]1OCCN(Cc2n[nH]c(=O)[nH]2)[C@H]1c1ccc(F)cc1)c1cc(C(F)(F)F)cc(C(F)(F)F)c1 [2-(R)-(1-(R)-(3,5-bis(trifluoromethyl)phenyl)-ethoxy)-3-(S)-(4-fluorophenyl)-4-(3-(5-oxo-1H,4H-1,2,4-triazolo)methyl)-morpholine]
ED50 (foot tapping in gerbils; [3]): 0.36 mg/kg
ED50 (foot tapping in gerbils; [4]): 0.33 mg/kg
ED90 [2]: < 3 mg/kg
ED50 ([1]; po, 4 hrs. pretreatment): 0.73 mg/kg

CNCCC(Oc1ccc(C(F)(F)F)cc1)c1ccccc1 (stereo not shown) [fluoxetine, reference compound]
attenuation of separation-induced vocalisations compared with baseline ([1]; 2 mg/kg i.p. alone): approximately 25%
